Measurements published in patent publication US4397676A, “N-Phosphonomethylglycine derivatives” (Geshuri Laboratories Ltd., priority 1982, dated 1983).
Where a name gives a salt, the structure may show the parent alone.

Tests used:
[1] = Solubility of NPMG-iminourea salts in water; assay type: physicochemical
Experimental: SOLUBILITY OF NPMG-IMINOUREA SALTS
NPMG Salt 20° C. (in grams)

various plant species = details: background statement; cited from earlier work
[2] = background statement; cited from earlier work

## O=C(O)CNCP(=O)(O)O [I, NPMG MONO (GUANIDINE) SALT]
[1]
  Weight dissolved in 100 ml water at 20° C.: 15.7 grams

## O=C(O)CNCP(=O)(O)O [II, NPMG MONO (AMINOGUANIDINE) SALT]
[1]; in words
  water solubility (in words): highly water-soluble
[1]; water as preferred diluent
  content of active materials in solutions readily prepared: ≤ 60 % by weight

## O=C(O)CNCP(=O)(O)O [NPMG, N-phosphonomethylglycine]
Various plant species
  herbicidal effect (in words): very effective phytotoxicant or herbicide
[2]
  solubility in water and conventional organic solvents (in words): relatively insoluble in water and conventional organic solvents

## O=C(O)CNCP(=O)(O)O [V, NPMG MONO (TETRA METHYL GUANIDINE) SALT]
[1]; listed as 1,1,3,3 Tetra Methyl Guanidine
  Weight dissolved in 100 ml water at 20° C.: 165 grams
